d = 2'-deoxy (DNA); r = 2'-OH (RNA)
How the values were obtained:
[1] = test system: primary keratinocytes transfected with IGFBP7 siRNA; experiment: ERK inhibition, proliferation of IGFBP7-silenced primary keratinocytes; assay type: cell-based, human; conditions: 120 μM for 72 hours, medium refreshed every 24 hours
Method: FIG. 17 is a histogram depicting the effect of ERK inhibition on primary keratinocytes proliferation in IFGBP7-silenced cells and control cells. Primary keratinocytes which were transfected with IGFBP7 siRNA were treated with 120 μM PD98059 (ERK inhibitor) for 72 hours, while refreshing the medium every 24 hours. Note that ERK inhibition attenuates cell proliferation induced by IGFBP7 down-regulation (p<0.01).
To further investigate the involvement of ERK in IGFBP7-mediated cell proliferation primary keratinocytes which were transfected with IGFBP7 siRNA were treated with the ERK inhibitor PD98059 (120 μM for 72 hours, while refreshing the medium every 24 hours).

[2] = test system: HaCat cells; experiment: MTT assay (cell viability) in HaCat cells; assay type: cell-based, human; conditions: siRNA, cultured 24 and 72 hours
Method: (§1) FIGS. 3A-F depict viability and proliferation assays of keratinocytes. […] Data represent mean values±SD of three independent experiments. Asterisk, p<0.01 compared with control cells. FIG. 3B—HaCat cells stably expressing an IGFBP7-specific shRNA or a control shRNA were assessed using the BrDu assay (stable transfection). Data represent mean values±SD of three independent experiments. Asterisk, p<0.01 compared with control cells. FIGS. 3C and D—KRT6a mRNA and protein levels were assessed by qRT-PCR (FIG. 3C) and immunoblotting (FIG. 3D) in HaCat cells stably expressing an IGFBP7-specific shRNA or a control shRNA. FIGS. 3E and F—Primary keratinocytes were transiently transfected with IGFBP7-specific siRNA (IGFBP7) or with control siRNA (control) and assessed using the MTT assay (FIG. 3E; 24 and 48 hours post transfection) and the BrDu assay (FIG. 3F; 24 hours post transfection). Data represent mean values±SD of three independent experiments (Asterisk, p<0.01 compared with control cells).
The MTT test is based on the selective ability of living cells to reduce the yellow salt MTT (3-(4,5-dimethylthiazolyl-2)-2,5-diphenyltetrazolium bromide) (Sigma, Aldrich St Louis, Mo., USA) to a purple-blue insoluble formazan precipitate. […] The supernatants were collected and then scanned with an ELISA reader Zenyth 200 (Anthos Labtec, Cambridge, UK) at 560 nm.

[3] = test system: primary human keratinocytes; experiment: MTT assay (cell viability) in primary keratinocytes; assay type: cell-based
Method: as §1
(§2) FIGS. 6A-C depict cell viability and proliferation assays of primary keratinocytes which exogenously express IGFBP7. […] FIGS. 6A-B—Cell viability and proliferation were assessed using the MTT (FIG. 6A) and BrDU (FIG. 6B) assays. FIG. 6C—Apoptosis was quantitated by TUNEL assay. […]

[4] = test system: primary human keratinocytes; experiment: BrDu incorporation assay (proliferation) in primary keratinocytes; assay type: cell-based
Method: as §1, with “Data represent mean values±SD of three independent experiments (Asterisk, p<0.01 compared with control cells).” left out
as §2
The incorporation rate of BrdU was determined by Cell Proliferation ELISA BrdU colorimetric kit (Roche, Mannheim, Germany) according to manufacturer's protocol. Absorbance at 450 nm was measured using an ELISA reader. […]

[5] = test system: three-dimensional organotypic skin equivalents; experiment: H&E staining of organotypic skin equivalents; assay type: cell-based, human; conditions: day 14
Method: The present inventors used a three-dimensional organotypic cell culture system to model the role of decreased IGFBP7 expression in the pathogenesis of psoriasis (FIGS. 18 and 19). In this model system, keratinocytes are grown at the air liquid interface on a support consisting of collagen and fibroblasts for up to 2 weeks. During this time, keratinocytes fully differentiate, forming a multilayered, cornified epithelium which faithfully replicates most physiological aspects of normal epidermal biology. The present inventors established the conditions necessary to grow such three-dimensional skin equivalents. Histological and immunohistochemical analyses confirmed the existence of a legitimate differentiation program in these cultures. […] At day 12, the stratum corneum was thickened and desquamation, i.e., detachment of cornified keratinocytes, occurred (FIG. 20).
(§3) To confirm the physiological relevance of these findings in keratinocyte monolayers, the present inventors suppressed the expression of IGFBP7 by RNA interference in skin organotypic cultures. […] Punch biopsies were also taken at day 7 for RNA extraction, transcribed to cDNA and analyzed by qRT-PCR for IGFBP7 mRNA expression. IGFBP7 specific siRNA suppressed IGFBP7 expression to less than 60% of the normal level in skin equivalents as measured at day 7 (data not shown). […]

[6] = test system: primary human keratinocytes; experiment: TUNEL apoptosis assay in primary keratinocytes; assay type: cell-based
Method: FIGS. 4A-C depict apoptosis assays in HaCat or primary keratinocyte cells. FIGS. 4A-B—HaCat cells stably expressing IGFBP7-specific (IGFBP7) or control shRNA (Co) (scrambled control), were exposed to 10 ng/μl of recombinant tumor necrosis factor-alpha (TNF-α) (+) or vehicle (−) 24 hours after transfection. Apoptosis was measured using the TUNEL assay (FIG. 4A) or the Annexin V assay (FIG. 4B). FIG. 4C—Primary keratinocytes were transiently transfected with IGFBP7-specific siRNA (IGFBP7) or with scrambled control siRNA (Co) and exposed to 10 ng/μl of recombinant TNF-α (+) or vehicle (−). Apoptotic activity was assessed by the TUNEL assay. All experiments were repeated three times. Results are provided as mean values±SD. […]
as §2
Apoptosis was assessed using the TUNEL kit (Roche, Mannheim, Germany) according to the manufacturer's protocol. […] More than 1,000 cells were counted for each slide and examined under a fluorescent microscope Zeiss Axioscope 2 (Carl Zeiss MicroImaging, Inc., Thornwood, N.Y.). […] Differences in apoptotic activity were considered significant at p-values <0.01 calculated using a standard Student's t-test.

[7] = test system: IGFBP7; experiment: qRT-PCR of IGFBP7 mRNA in organotypic skin equivalents; assay type: cell-based, human
Method: RNA was extracted from cultured cells using an RNA extraction kit (Roche Mannheim, Germany). cDNA was synthesized from 500 ng of total RNA using the Reverse-iT first strand synthesis kit (ABgene, Epson, UK) and random hexamers. cDNA PCR amplification was carried out using the SYBR Green JumpStart Taq ReadyMix (Sigma-Aldrich, St Louis, Mo., USA) on a M×3000 p/5 p multifilter system (Stratagene, Cedar Creek, Tex., USA) with gene-specific intron-crossing oligonucleotide pairs listed in Table 2 below. To ensure the specificity of the reaction conditions, at the end of the individual runs, the melting temperature (Tm) of the amplified products was measured to confirm its homogeneity. […] Each sample was analyzed in triplicate. For quantification, standard curves were obtained using serially diluted cDNA amplified in the same real-time PCR run. […] After the quantification procedure, the products were resolved by 2.5% agarose gel electrophoresis to confirm that the reaction had amplified DNA fragments of expected size.
as §3, with “expression.” for “expression. IGFBP7 specific siRNA suppressed IGFBP7 expression to less than 60% of the normal level in skin equivalents as measured at day 7 (data not shown).”

[8] = test system: primary keratinocyte cells; experiment: Effect of rIGFBP7 on differentiation of primary keratinocytes; assay type: cell-based, human; conditions: data not shown
Excerpt: To confirm the involvement of IGFBP7 in the regulation of keratinocyte proliferation and differentiation, the present inventors examined the effect of recombinant human IGFBP7 polypeptide (rIGFBP7) on primary keratinocyte cells.

[9] = test system: human skin grafted onto beige-SCID mice injected with NK/T cells from psoriatic patients; experiment: Chimeric human-mouse psoriasis model, histology; assay type: in vivo; conditions: intralesional, histology two weeks after the treatment
Method: To assess the effect of IGFBP7 on psoriasis, the present inventors used a chimeric mouse model (FIG. 23). The model is based on the use of normal skin from healthy controls that is grafted onto beige-SCID mice. The grafts are then injected with NK/T cells isolated from psoriatic patients (Gilhar et al., 2002).
In the experimental system used herein, two weeks after NK injection (6 weeks after engraftment) 3 groups of mice were treated with intralesional PBS, topical dexamethasone and intralesional IGFBP7. The effect of the treatment was monitored by histology analysis two weeks after the treatment (8 weeks after engraftment).

[10] = 1.8 μg/μl rIGFBP7 for 72 hours, then 12 hours in medium lacking rIGFBP7

COc1cccc(-c2cc(=O)c3ccccc3o2)c1N [PD98059]
keratinocyte proliferation induced by IGFBP7 down-regulation [1]: prevented the induction of keratinocyte proliferation

IGFBP7 specific siRNA: siRNA IGFBP7 duplex of SEQ ID NO:32 and SEQ ID NO:33 (Sigma-Proligo) (chain 1 GCUGGUAUCUCCUCUAAGUTT; chain 2 ACUUAGAGGAGAUACCAGCTT; sugars from the 5' end r19 d2, backbone not given here)
cell viability (MTT assay) [2]: more viable and proliferative | cell viability (MTT assay) ([3]; primary keratinocytes, 24 and 48 hours post transfection): more viable and proliferative | cell proliferation (BrDu assay) ([4]; primary keratinocytes, 24 hours post transfection): more viable and proliferative | H&E histological changes [5]: abnormal stratification, absence of granular layer, parakeratosis and marked hyperkeratosis | TNF-α-induced cell apoptosis (TUNEL assay) ([6]; primary keratinocytes transiently transfected, 10 ng/μl recombinant TNF-α): prevented TNF-α-induced cell apoptosis | duration of the siRNA effect ([7]; organotypic skin model, data not shown): at least 7 days | IGFBP7 expression relative to normal level ([7]; skin equivalents, day 7, data not shown): less than 60%

rIGFBP7: human recombinant IGFBP7 polypeptide (R&D systems Inc. Catalogue No. 1334-B7-025)
viable cell counts (MTT assay) [3, 10]: decrease in viable cell counts | cell proliferation (BrDu assay) [4, 10]: decrease in cell proliferation | keratinocyte apoptosis (TUNEL assay) ([6]; 1.8 μg/μl rIGFBP7 for 72 hours, then 12 hours in medium lacking rIGFBP7, TNF-α-mediated): increase in keratinocyte apoptosis | cell differentiation [8]: lacked significant effect on cell differentiation | mice with features of psoriasis on histology [9]: one animal only showed features of psoriasis on histology | mice with full recovery on histology [9]: three mice showed full recovery | mice with partial recovery on histology [9]: one mouse recovered partially (50%) | mononuclear infiltrating cells in the dermis [9]: could still be seen in the dermis albeit in smaller numbers

From US8912142B2, “Method of regulating proliferation and differentiation of keratinocyes” (The Medical Research, Infrastructure and Health Services …, priority 2009, dated 2014)
